Experimental data reported in US20250145633A1, “SUBSTITUTED FURANOPYRIMIDINE COMPOUNDS AS PDE1 INHIBITORS” (Dart NeuroScience, LLC, priority 2017, published 2025).

Target: human PDE1B enzyme (Homo sapiens (Human), UniProt Q01064)
Assay: IMAP TR-FRET PDE1B enzymatic assay
Type: biochemical
Settings: negative log of half-maximal molar inhibitory concentration, 200 nM FAM-cAMP, values given as bins; for IC50: read-out: PDE1b (pIC50) (converted)
Outline: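 Full-length GST-tagged human PDE1B (250 pg/well) in IMAP BSA buffer with 10 U/ml calmodulin and 2.5 mM CaCl2; compound pre-incubated 5 min at room temperature, then 200 nM (final) FAM-cAMP for 30 min. IMAP binding reagent/Tb added, 1 h; TR-FRET 520/490 ratio read. IC50 from sigmoidal dose-response fit.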

Compound	IC50 [nM]	PDE1b (pIC50)
Cc1noc(CNC(=O)c2c(C)oc3ncnc(NC4(C)CC4)c23)n1 [Example 627, 6-Methyl-N-[(3-methyl-1 2 4-oxadiazol-5-yl)methyl]-4-[(1-methylcyclopropyl)amino]furo[2,3-d]pyrimidine-5-carboxamide]	10 to 100	
Cc1oc2ncnc(NC3(C)CC3)c2c1C(=O)N1CCc2c(ncnc2C(C)C)C1 [Example 628, 6-Methyl-N-(1-methylcyclopropyl)-5-[4-(propan-2-yl)-5H,6H,7H,8H-pyrido[3,4-d]pyrimidine-7-carbonyl]furo[2,3-d]pyrimidin-4-amine]	10 to 100	
COc1ncnc2c1CCN(C(=O)c1c(C)oc3ncnc(NC4(C)CC4)c13)CC2 [Example 629, 5-{4-Methoxy-5H,6H,7H,8H,9H-pyrimido[4,5-d]azepine-7-carbonyl}-6-methyl-N-(1-methylcyclopropyl)furo[2,3-d]pyrimidin-4-amine]	100 to 1000	
Cc1oc2ncnc(NC3(C)CC3)c2c1C(=O)N1CCc2cccnc2C1 [Example 630, 6-Methyl-N-(1-methylcyclopropyl)-5-(5,6,7,8-tetrahydro-1,7-naphthyridine-7-carbonyl)furo[2,3-d]pyrimidin-4-amine]	10 to 100	
Cc1oc2ncnc(NC3(C)CC3)c2c1C(=O)N1CCc2ncccc2C1 [Example 631, 6-Methyl-N-(1-methylcyclopropyl)-5-(5,6,7,8-tetrahydro-1,6-naphthyridine-6-carbonyl)furo[2,3-d]pyrimidin-4-amine]	100 to 1000	
Cc1cc2n(n1)CCN(C(=O)c1c(C)oc3ncnc(NC4(C)CC4)c13)C2 [Example 632, 6-Methyl-5-f{2-methyl-4H,5H,6H,7H-pyrazolo[1,5-a]pyrazine-5-carbonyl}-N-(1-methylcyclopropyl)furo[2,3-d]pyrimidin-4-amine]	10 to 100	
Cc1cn2c(n1)CN(C(=O)c1c(C)oc3ncnc(NC4(C)CC4)c13)CC2 [Example 633, 6-Methyl-5-{2-methyl-5H,6H,7H,8H-imidazo[1,2-a]pyrazine-7-carbonyl}-N-(1-methylcyclopropyl)furo[2,3-d]pyrimidin-4-amine]	100 to 1000	
COc1cc2c(cn1)CN(C(=O)c1c(C)oc3ncnc(NC4(C)CC4)c13)CC2 [Example 634, 5-(6-Methoxy-1,2,3,4-tetrahydro-2,7-naphthyridine-2-carbonyl)-6-methyl-N-(1-methylcyclopropyl)furo[2,3-d]pyrimidin-4-amine]	10 to 100	
COc1ccc2c(n1)CCN(C(=O)c1c(C)oc3ncnc(NC4(C)CC4)c13)C2 [Example 635, 5-(2-Methoxy-5,6,7,8-tetrahydro-1,6-naphthyridine-6-carbonyl)-6-methyl-N-(1-methylcyclopropyl)furo[2,3-d]pyrimidin-4-amine]	10 to 100	
Cc1oc2ncnc(NC3(C)CC3)c2c1C(=O)N1CCn2nc(C#N)cc2C1 [Example 636, 5-{6-Methyl-4-[(1-methylcyclopropyl)amino]furo[2,3-d]pyrimidine-5-carbonyl}-4H,5H,6H,7H-pyrazolo[1,5-a]pyrazine-2-carbonitrile]	100 to 1000	
Cc1oc2ncnc(NC3(C)CC3)c2c1C(=O)N1CCc2ccncc2C1 [Example 637, 6-Methyl-N-(1-methylcyclopropyl)-5-(1,2,3,4-tetrahydro-2 7-naphthyridine-2-carbonyl)furo[2,3-d]pyrimidin-4-amine]	100 to 1000	
Cc1oc2ncnc(NC3(C)CC3)c2c1C(=O)N1CCn2c(C(F)(F)F)nc(C3CCOCC3)c2C1 [Example 638, 6-Methyl-N-(1-methylcyclopropyl)-5-[1-(oxan-4-yl)-3-(trifluoromethyl)-5H,6H,7H,8H-imidazo[1,5-a]pyrazine-7-carbonyl]furo[2,3-d]pyrimidin-4-amine]	100 to 1000	
Cc1oc2ncnc(NC3(C)CC3)c2c1C(=O)N1CCn2c(C)nc(C3CCOCC3)c2C1 [Example 639, 6-Methyl-5-[3-methyl-1-(oxan-4-yl)-5H,6H,7H,8H-imidazo[1,5-a]pyrazine-7-carbonyl]-N-(1-methylcyclopropyl)furo[2,3-d]pyrimidin-4-amine]	100 to 1000	
Cc1oc2ncnc(NC3(C)CC3)c2c1C(=O)N1CCn2cncc2C1 [Example 640, 5-{5H,6H,7H,8H-Imidazo[1,5-a]pyrazine-7-carbonyl}-6-methyl-N-(1-methylcyclopropyl)furo[2,3-d]pyrimidin-4-amine]	100 to 1000	
Cc1oc2ncnc(NC3(C)CC3)c2c1C(=O)N1CCn2ncc(Br)c2C1 [Example 641, 5-{3-Bromo-4H,5H,6H,7H-pyrazolo[1,5-a]pyrazine-5-carbonyl}-6-methyl-N-(1-methylcyclopropyl)furo[2,3-d]pyrimidin-4-amine]	100 to 1000	
Cc1oc2ncnc(NC3(C)CC3)c2c1C(=O)N1CCc2cc(Cl)ncc2C1 [Example 642, 5-(6-Chloro-1,2,3,4-tetrahydro-2,7-naphthyridine-2-carbonyl)-6-methyl-N-(1-methylcyclopropyl)furo[2,3-d]pyrimidin-4-amine]	10 to 100	
CON(C)C(=O)c1c(C)oc2ncnc(NC3(C)CC3)c12 [Example 643, N-Methoxy-N,6-dimethyl-4-[(1-methylcyclopropyl)amino]furo[2,3-d]pyrimidine-5-carboxamide]	100 to 1000	

Compound	IC50 [nM]	PDE1b (pIC50)
Cc1oc2ncnc(NC3(C)CC3)c2c1C(=O)NCc1ccnc(C(C)C)n1 [Example 644, 6-Methyl-4-[(1-methylcyclopropyl)amino]-N-{[2-(propan-2-yl)pyrimidin-4-yl]methyl}furo[2,3-d]pyrimidine-5-carboxamide]	10 to 100	
Cc1oc2ncnc(NC3(C)CC3)c2c1C(=O)Nc1cnn(C2CC2)c1 [Example 645, N-(1-Cyclopropyl-1H-pyrazol-4-yl)-6-methyl-4-[(1-methylcyclopropyl)amino]furo[2,3-d]pyrimidine-5-carboxamide]	10 to 100	
Cc1oc2ncnc(NC3(C)CC3)c2c1C(=O)NCc1cnn(C)c1 [Example 646, 6-Methyl-N-[(1-methyl-1H-pyrazol-4-yl)methyl]-4-[(1-methylcyclopropyl)amino]furo[2,3-d]pyrimidine-5-carboxamide]	10 to 100	
Cc1oc2ncnc(NC3(C)CC3)c2c1C(=O)NCc1cncnc1 [Example 647, 6-Methyl-4-[(1-methylcyclopropyl)amino]-N-(pyrimidin-5-ylmethyl)furo[2,3-d]pyrimidine-5-carboxamide]	100 to 1000	
Cc1oc2ncnc(NC3(C)CC3)c2c1C(=O)NCc1ncc2c(n1)CCC2 [Example 648, N-{5H,6H,7H-Cyclopenta[d]pyrimidin-2-ylmethyl}-6-methyl-4-[(1-methylcyclopropyl)amino]furo[2,3-d]pyrimidine-5-carboxamide]		>8
Cc1cc(C(F)(F)F)nc(CNC(=O)c2c(C)oc3ncnc(NC4(C)CC4)c23)n1 [Example 649, 6-Methyl-N-{[4-methyl-6-(trifluoromethyl)pyrimidin-2-yl]methyl}-4-[(1-methylcyclopropyl)amino]furo[2,3-d]pyrimidine-5-carboxamide]		>8
Cc1oc2ncnc(NC3(C)CC3)c2c1C(=O)NC1CCN(c2ccccn2)CC1 [Example 650, 6-Methyl-4-[(1-methylcyclopropyl)amino]-N-[1-(pyridin-2-yl)piperidin-4-yl]furo[2,3-d]pyrimidine-5-carboxamide]	10 to 100	
Cc1nc2cc(NC(=O)c3c(C)oc4ncnc(NC5(C)CC5)c34)ccc2o1 [Example 651, 6-Methyl-N-(2-methyl-1,3-benzoxazol-5-yl)-4-[(1-methylcyclopropyl)amino]furo[2,3-d]pyrimidine-5-carboxamide]	10 to 100	
Cc1oc2ncnc(NC3(C)CC3)c2c1C(=O)NCc1ccncn1 [Example 652, 6-Methyl-4-[(1-methylcyclopropyl)amino]-N-(pyrimidin-4-ylmethyl)furo[2,3-d]pyrimidine-5-carboxamide]	10 to 100	
Cc1oc2ncnc(NC3(C)CC3)c2c1C(=O)NCc1ncccn1 [Example 653, 6-Methyl-4-[(1-methylcyclopropyl)amino]-N-(pyrimidin-2-ylmethyl)furo[2,3-d]pyrimidine-5-carboxamide]	10 to 100	
Cc1cc(CNC(=O)c2c(C)oc3ncnc(NC4(C)CC4)c23)ncn1 [Example 654, 6-Methyl-4-[(1-methylcyclopropyl)amino]-N-[(6-methylpyrimidin-4-yl)methyl]furo[2,3-d]pyrimidine-5-carboxamide]	10 to 100	
Cc1oc2ncnc(NC3(C)CC3)c2c1C(=O)Nc1ccc(N2CCOCC2)cc1 [Example 655, 6-Methyl-4-[(1-methylcyclopropyl)amino]-N-[4-(morpholin-4-yl)phenyl]furo[2,3-d]pyrimidine-5-carboxamide]	10 to 100	
Cc1oc2ncnc(NC3(C)CC3)c2c1C(=O)Nc1ccc(N2CCOCC2)nn1 [Example 656, 6-Methyl-4-[(1-methylcyclopropyl)amino]-N-[6-(morpholin-4-yl)pyridazin-3-yl]furo[2,3-d]pyrimidine-5-carboxamide]	100 to 1000	
Cc1oc2ncnc(NC3(C)CC3)c2c1C(=O)Nc1cnc(N2CCOCC2)nc1 [Example 657, 6-Methyl-4-[(1-methylcyclopropyl)amino]-N-[2-(morpholin-4-yl)pyrimidin-5-yl]furo[2,3-d]pyrimidine-5-carboxamide]	10 to 100	
Cc1oc2ncnc(NC3(C)CC3)c2c1C(=O)Nc1cnc(N2CCOCC2)cn1 [Example 658, 6-Methyl-4-[(1-methylcyclopropyl)amino]-N-[5-(morpholin-4-yl)pyrazin-2-yl]furo[2,3-d]pyrimidine-5-carboxamide]	10 to 100	
Cc1ncncc1CNC(=O)c1c(C)oc2ncnc(NC3(C)CC3)c12 [Example 659, 6-Methyl-4-[(1-methylcyclopropyl)amino]-N-[(4-methylpyrimidin-5-yl)methyl]furo[2,3-d]pyrimidine-5-carboxamide]	10 to 100	
